Results from PubChem BioAssay AID2305 (GlaxoSmithKline (GSK), 2010).
pIC50: −log10 of the molar value.

System: P. falciparum 3D7 growth, pLDH absorbance
Experiment: blood-stage malaria parasite growth potency – strain 3D7, dose response (AID 2305)

SMILES	pIC50
Nc1nc(N)c2c(Cl)c(CNc3cccc(C(=O)O)c3)ccc2n1	8.00
CS(=O)(=O)c1cccc2sc(N3CCN(C(=O)c4ccc([N+](=O)[O-])o4)CC3)nc12	5.91
O=C(Cc1cnc[nH]1)Nc1cccc(-c2cccc(-c3nc4ccc(C(F)(F)F)cc4[nH]3)c2)c1	6.64
CCC(CC)n1cc2c(ccc3nc(N)nc(N)c32)n1	7.10
CC1(C)CN(CCC2CCC(NC(=O)/C=C/c3ccc(F)cc3F)CC2)Cc2ccc(C#N)cc21 (stereo not given)	6.10
Cn1nc(C(F)(F)F)c(-c2ccc(Br)cc2)c1NC(=O)Nc1ccc(F)cc1F	6.10
CC1CN(c2ccc(C(=O)NCC3CC3)cc2NC(=O)OCc2ccccc2)CC(C)O1 (stereo not given)	5.89
Cc1nc(N)nc(N)c1OCCCCCCOc1ccccc1	6.62
COc1ccc2ncc(C#N)c(CCN3CCC(NCc4ccc5c(c4)NC(=O)CO5)CC3)c2c1	6.23
CCCc1cc(Cc2cnc(N)nc2N)cc(CCC)c1OC	6.05
CN(c1ccc(NC(=O)CCOc2ccccc2)cc1)C1CCN(Cc2cccc(O)c2)CC1	5.88
CC(=O)N(C)c1ccc(C(=O)Nc2cccc(-c3cccc(-c4nc5c(C)cccc5[nH]4)c3)c2)cc1	6.21
Cc1cc(C(=O)Nc2ccc3c(ccn3C3CCCN(Cc4ccc(C(F)(F)F)cc4F)CC3)c2)no1 (stereo not given)	6.12
CCOC(=O)CCCc1cc(NC2CCN(C)CC2)nc(Nc2ccc(C)cc2)n1	6.59
COc1ccc(-n2nc(C(=O)NCCC3=CCCCC3)c3ccccc3c2=O)cc1	6.17
Cc1cc(C)cc(OCC(O)CN(Cc2cc(Cl)cc(Cl)c2)C(=O)Nc2ccc([N+](=O)[O-])cc2)c1 (stereo not given)	6.10
COc1ccc(NC(=O)[C@H](Cc2ccccc2)Nc2cc(C)nc(NCCc3cccnc3)n2)cc1	6.12
COc1ccc2nccc(NC(=O)C3(O)CCC(NCc4ncc5c(c4Cl)OCCO5)CC3)c2n1 (stereo not given)	6.60
CCN(CCCN1CCCCC1)c1cc(C)nc(Nc2ccc3c(c2)CCC3)n1	6.41
COc1ccccc1N1CCN(CCCCNC(=O)c2ccc(NC(=O)c3ccc4ccccc4c3)cc2)CC1	6.10
O=c1[nH]c2c(c(O)c1[N+](=O)[O-])CCC2	5.98
CCCCNCCOc1ccc(-c2nc(-c3ccccc3)c(-c3ccccc3)[nH]2)cc1	6.17
O=C(Nc1ccc(OC2CCN(Cc3ccccc3)CC2)c(Cl)c1)c1ccc(F)cc1	6.10
CC1(C)N=C(NC(=O)c2cc([N+](=O)[O-])cc([N+](=O)[O-])c2)N=C(N)N1OCc1cccc2ccccc12	8.00

SMILES	pIC50
CC(=O)Nc1ncc(C(=O)Nc2cccc(-c3ccc(-c4nc5ccc(C(F)(F)F)cc5[nH]4)s3)c2)s1	6.40
COc1ccc2ncc(Cl)c(N3CCC(CCNCc4ccc5c(n4)NC(=O)CS5)CC3)c2c1	6.02
Clc1ccc2c(NCc3ccccn3)ccnc2c1	6.18
O=C(NC1CCN(CCC[C@]2(c3ccc(Cl)c(Cl)c3)CCCN(C(=O)c3ccccc3)C2)CC1)c1ccc(F)cc1	6.06
COc1cccc(Nc2nc(C)cc(NCc3ccc(-c4c(C)noc4C)cc3)n2)c1	6.06
NC(=O)c1cc(-c2ccccc2)cc2c(C3CCC(NCc4ccccc4)C3)c[nH]c12 (stereo not given)	6.04
COc1nc2c(N3CCN(CCNCc4ccc5c(n4)NC(=O)CS5)CC3)ccnc2cc1F	6.15
Cc1cc(C2CCN(CCCCNC(=O)c3ccc(NC(=O)c4ccc(Cl)cc4)cc3)CC2)c(C)cc1OCc1ccncc1	6.30
CCNC(=O)c1cc(S(=O)(=O)N2CCN(c3ccccn3)CC2)cs1	6.06
Cc1nnc2c(NC(=O)NC(C)C)cc3cc(-c4ccc(CN5CCCCC5)cc4)ccc3n12	5.93
COc1ccc(CCn2c(=N)c(C(=O)NCc3ccccc3)cc3c(=O)n4cccc(C)c4nc32)cc1	6.47
Cc1csc(-c2ccc3[nH]cc(C4=CCN(C)CC4)c3c2)n1	6.12
Clc1ccc(OC2CCC(Cn3ccnc3)(c3ccc(Cl)cc3Cl)CC2)c(Cl)c1 (stereo not given)	6.10
CC1CCCCC1N(C)C1CCN(CCCNC(=O)C=Cc2ccc(Cl)cc2Cl)CC1 (stereo not given)	6.19
COc1ccc(CC(=O)NC(CCCN2CCC3(CC2)OCc2ccccc23)c2ccc(Cl)c(Cl)c2)cc1 (stereo not given)	5.95
Cc1ccccc1C1CCN(C2CCC(NC(=O)/C=C/c3cc(C(F)(F)F)ccc3F)CC2)CC1 (stereo not given)	6.08
O=C(Nc1ccc(F)cc1)c1nc2ccccc2nc1Cl	5.91
CC[C@H]1CN2CC[C@@H]1C[C@H]2[C@H](O)c1cc(N2CCOCC2)nc2ccc(OC)cc12	6.92
CCOC(=O)N1CCN(C(=O)Nc2ccc(Cl)cc2)CC1	5.82
CCOc1cc(Cc2cnc(N)nc2N)cc(Br)c1OC	5.84
CN1CCC(c2cc3c(cc2Br)CCN3C(=O)Nc2ccc(-c3ccncc3)c(Cl)c2)CC1	6.00
COc1cccc(C=Cc2nc(=O)c3ccccc3o2)c1OC	7.22
CCN(CC)CCCCNc1cc(-c2[nH]c(-c3c(Cl)cccc3Cl)nc2-c2ccc3cc(OC)ccc3c2)ccn1	6.02
COc1cccc(NC(=O)NC2CCN(c3ccnc(Nc4ccc(F)cc4)n3)C2)c1 (stereo not given)	6.24

SMILES	pIC50
CCOc1ccc2c(NN=Cc3ccccc3OC)cc(C)nc2c1	6.30
CCc1cn(CCOC)c2ccc(C(=O)N[C@@H](Cc3ccccc3)[C@H](O)CNC(C)(C)CCCC(C)C)cc12	6.24
COc1ccc2nccc(NN=Cc3cccc([N+](=O)[O-])c3)c2c1	6.40
CCC[C@@H]([C@@H](CC1CCC(C)CC1)C(=O)N[C@@H](CO)C(=O)Nc1nccs1)N(O)C=O (stereo not given in full)	6.49
CC(C)C[C@H](NC(=O)c1cc2ccccc2s1)C(=O)N[C@H]1CCN(Cc2ccc(OC3CCN(C)C3)c(Cl)c2)C1 (stereo not given in full)	6.11
CC(Sc1nc(-c2ccccc2)c(-c2ccccc2)o1)C(=O)NC1CC1 (stereo not given)	6.08
COc1cc(NC(=O)Nc2ccc(Br)cc2C(=O)Nc2ccc(Br)cc2)cc(OC)c1OC	6.12
NC(N)=NN=CC(=O)Nc1ccc(Cl)c(Cl)c1	6.13
CCCOc1ccc(CCNCCCCNCCc2ccc(OCCC)c3ccccc23)c2ccccc12	6.04
O=C(Nc1cccc(-c2nn3ncccc3c2-c2ccnc(Nc3cccc(-c4cnco4)c3)n2)c1)c1c(F)cccc1F	6.77
Cc1cc(N[C@@H](Cc2ccccc2)C(=O)NCc2cccc(F)c2)nc(NCCOc2ccccc2)n1	6.10
COc1ccc2nc(C)cc(NN=Cc3ccc(F)cc3)c2c1	6.72
Cc1[nH]c(C)c(-c2ccc(-c3ccccc3)nc2)c(=O)c1Br	6.18
Cc1[nH]c(C)c(-c2ccc(OCCCc3ccccn3)cc2)c(=O)c1Br	6.68
O=C(c1cc(-c2cccs2)[nH]n1)N1CCN(S(=O)(=O)c2ccc(Cl)cc2)CC1	6.54
Cc1ccc(O)cc1Nc1ccnc2cc(-c3csc(CN4CCN(C)CC4)n3)ccc12	6.22
OCC1CCN(Cc2ccc(-c3ccc(-c4nc5ccc(F)cc5[nH]4)s3)cc2)CC1	6.07
CCOc1ccc(C(=O)N2CCOC(CCN3CCC(c4ccccc4)CC3)(c3ccc(Cl)c(Cl)c3)C2)cc1 (stereo not given)	6.07
COc1cccc2cc(C(=O)N[C@@H](CC(C)C)C(=O)N[C@H](/C=N/NC(=O)N3CCN(C)CC3)CCc3ccccc3)oc12	6.21
CCOc1cc(C(=O)NC2CCN(Cc3ccccc3)CC2)ccc1-c1nc2ccc(Cl)cc2[nH]1	6.37
c1ccc(Oc2ccc(Nc3ccnc4cc(-c5ccc(CNCCN6CCOCC6)o5)ccc34)cc2)cc1	6.36
Cc1cc(CNCCCCCCCNCc2cccc([N+](=O)[O-])c2)ccc1O	6.19
